The values below come from patent US12606541B2, “PPARg modulators and methods of use” (Eisai R&D Management Co., Ltd., priority 2020, dated 2026).

The target in one assay is T1, His6-TEV-PPARγ-(234-505) (Homo sapiens, UniProt P37231).
T1 construct: The His6-TEV-PPARγ-(234-505) protein for assay was expressed and purified; TEV cleavage site (N); made in house
T1 sequence (P37231 234-505): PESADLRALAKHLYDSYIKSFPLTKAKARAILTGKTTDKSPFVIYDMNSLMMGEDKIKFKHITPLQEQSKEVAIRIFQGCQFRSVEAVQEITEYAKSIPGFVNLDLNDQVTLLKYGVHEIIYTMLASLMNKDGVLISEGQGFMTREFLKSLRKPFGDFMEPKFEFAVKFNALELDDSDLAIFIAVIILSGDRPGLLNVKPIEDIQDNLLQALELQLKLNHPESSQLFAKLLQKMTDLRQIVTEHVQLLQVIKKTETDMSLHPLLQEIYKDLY
The assay can be described thus: TR-FRET Assay to Measure Co-R Peptide Recruitment to PPARγ. It is filed as biochemical. The settings on record: Co-R peptide (SMRT-ID2) recruitment; top final concentration 20 μM; read-out: TR-FRET i-Ag; AC50. An outline of the steps:
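His-tagged PPARγ (or controls) was preincubated with compound for 20 minutes at room temperature, then 5 nM anti-His terbium antibody and 200 nM FITC-labeled SMRT-ID2 corepressor peptide (final) were added for a further hour. TR-FRET signal was normalized to percent response using 500 nM T0070907 and DMSO controls.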
(TR-FRET usually uses a lanthanide donor and a delayed reading to cut background.)

In another assay the test system is UM-UC-9 engineered cells. In words: Cell proliferation / short-term viability assay, CellTiter-Glo 144 h. Conditions: read-out: CTGlo 144 h UMUC9.5, G150. It is filed as cell-based, human. In a few lines:
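UM-UC-9 engineered assay-ready cells seeded at 500 cells/well in high-glucose DMEM/10% FBS, treated from dose-response plates, grown at 37° C, 5% CO2. CellTiter-Glo 2.0 luminescence read on day 7, with a day-0 pretreatment plate as T0 reference and DMSO wells as negative control.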
For orientation: Cellular ATP, detected with luciferase, serves as a proxy for viable cell number.

Where two headings read alike, the source gives them in different places.

In the case of `COc1cc(-c2cc(C(=O)N3CCC(C(=O)NCc4ccc5[nH]nc(C)c5c4)CC3)n[nH]2)c(F)cn1` [Example 204, 1-[5-(5-fluoro-2-methoxypyridin-4-yl)-1H-pyrazole-3-carbonyl]-N-[(3-methyl-1H-indazol-5-yl)methyl]piperidine-4-carboxamide], the AC50 at His6-TEV-PPARγ-(234-505) was found to be 20.2 nM. Also, in the assay with UM-UC-9 engineered cells (Homo sapiens, UM-UC-9, 144 h), the IC50 is 83.3 nM.

`COc1cc(-c2cc(C(=O)N3CCC(C(=O)NC4CCC(O)(C(F)(F)F)CC4)CC3)n[nH]2)c(Cl)cn1` (mixture of isomers) [Example 144, 1-(5-(5-chloro-2-methoxypyridin-4-yl)-1H-pyrazole-3-carbonyl)-N-(4-hydroxy-4-(trifluoromethyl)cyclohexyl)piperidine-4-carboxamide]: the AC50 on His6-TEV-PPARγ-(234-505) is 44.7 nM. In the assay on UM-UC-9 engineered cells (Homo sapiens, UM-UC-9, 144 h), the IC50 was 334 nM.

For `COc1cc(-c2cc(C(=O)N3CCC(NC(=O)C4CCC(O)(C(F)(F)F)CC4)CC34CC4)n[nH]2)c(F)cn1` (single isomer, unassigned) [Example 347-D], on His6-TEV-PPARγ-(234-505), the AC50 is at least 20000 nM. Moreover, in the assay on UM-UC-9 engineered cells, the IC50 was above 10000 nM.

With `COc1cc(-c2cc(C(=O)N3CC[C@H](C(=O)N[C@H]4CC[C@@](OCCN)(C(F)(F)F)CC4)CC34CC4)n[nH]2)c(F)cn1` [Example 350, (S)—N-((1r,4S)-4-(2-aminoethoxy)-4-(trifluoromethyl)cyclohexyl)-4-(5-(5-fluoro-2-methoxypyridin-4-yl)-1H-pyrazole-3-carbonyl)-4-azaspiro[2.5]octane-7-carboxamide], the AC50 on His6-TEV-PPARγ-(234-505) amounted to 5.3 nM. Besides, the IC50 in the assay on UM-UC-9 engineered cells (Homo sapiens, UM-UC-9, 144 h) was determined as 176 nM.

Regarding `COc1cc(-c2cc(C(=O)N3CCC(C(=O)NC4CN(C5CCOC5)C4)CC34CC4)n[nH]2)c(F)cn1` (mixture of isomers) [Example 433, (S)-4-(5-(5-fluoro-2-methoxypyridin-4-yl)-1H-pyrazole-3-carbonyl)-N-(1-((S)-tetrahydrofuran-3-yl)azetidin-3-yl)-4-azaspiro[2.5]octane-7-carboxamide and (S)-4-(5-(5-fluoro-2-methoxypyridin-4-yl)-1H-pyrazole-3-carbonyl)-N-(1-((R)-tetrahydrofuran-3-yl)azetidin-3-yl)-4-azaspiro[2.5]octane-7-carboxamide], the AC50 on His6-TEV-PPARγ-(234-505) was 89.6 nM. Besides, in the assay with UM-UC-9 engineered cells, the IC50 came to 695 nM.

For the molecule `COc1cc(-c2cc(C(=O)N3CC[C@H](C(=O)NC4CCN(CC5(O)COC5)C4)CC34CC4)n[nH]2)c(F)cn1` (single isomer, unassigned) [Example 454-B], at His6-TEV-PPARγ-(234-505), the AC50 turned out to be 100 nM. In the assay on UM-UC-9 engineered cells, the IC50 stood at 1880 nM.

With `COc1cc(-c2cc(C(=O)N3CCC(C(=O)NC45CC(CO)(C4)OC5C)CC34CC4)n[nH]2)c(F)cn1` (mixture of isomers) [Example 518, (S)-4-(5-(5-fluoro-2-methoxypyridin-4-yl)-1H-pyrazole-3-carbonyl)-N—((R)-1-(hydroxymethyl)-3-methyl-2-oxabicyclo[2.1.1]hexan-4-yl)-4-azaspiro[2.5]octane-7-carboxamide and (S)-4-(5-(5-fluoro-2-methoxypyridin-4-yl)-1H-pyrazole-3-carbonyl)-N—((S)-1-(hydroxymethyl)-3-methyl-2-oxabicyclo[2.1.1]hexan-4-yl)-4-azaspiro[2.5]octane-7-carboxamide], at His6-TEV-PPARγ-(234-505), the AC50 worked out at 149 nM. The IC50 in the assay with UM-UC-9 engineered cells was found to be 4050 nM.

Consider `COc1cc(-c2cc(C(=O)N3CCC(C(=O)NCc4cnc(C)o4)CC3)n[nH]2)c(Cl)cn1` [Example 136, 1-(5-(5-chloro-2-methoxypyridin-4-yl)-1H-pyrazole-3-carbonyl)-N-((2-methyloxazol-5-yl)methyl)piperidine-4-carboxamide], for which the AC50 on His6-TEV-PPARγ-(234-505) is 887 nM. In addition, the IC50 in the assay with UM-UC-9 engineered cells (Homo sapiens, UM-UC-9, 144 h) came to 6100 nM.

Take `COc1cc(-c2cc(C(=O)N3CC[C@H](C(=O)NC4CCN(C5COC56CNC6)C4)CC34CC4)n[nH]2)c(F)cn1` (single isomer, unassigned) [Example 461-B]: the AC50 on His6-TEV-PPARγ-(234-505) worked out at 324 nM. For the same molecule, in the assay on UM-UC-9 engineered cells, the IC50 is above 10000 nM.

Regarding `COc1cc(-c2cc(C(=O)N3CC[C@H](C(=O)NCc4ncccc4C(F)(F)F)CC34CC4)[nH]n2)c(F)cn1` [Example 510, (S)-4-(3-(5-fluoro-2-methoxypyridin-4-yl)-1H-pyrazole-5-carbonyl)-N-((3-(trifluoromethyl)pyridin-2-yl)methyl)-4-azaspiro[2.5]octane-7-carboxamide], at His6-TEV-PPARγ-(234-505), the AC50 was found to be 3.8 nM. Moreover, in the assay on UM-UC-9 engineered cells (Homo sapiens, UM-UC-9, 144 h), the IC50 is 1.8 nM.

In the case of `COc1cc(-c2cc(C(=O)N3CC[C@H](C(=O)NC4CCN(CC(F)(F)CO)C4)CC34CC4)n[nH]2)c(F)cn1` (single isomer, unassigned) [Example 459-A], the AC50 on His6-TEV-PPARγ-(234-505) amounted to 8 nM. For the same molecule, the IC50 with UM-UC-9 engineered cells is 275 nM.

On to `COc1cc(-c2cc(C(=O)N3CC[C@H](C(=O)NC45CC(CO)(C4)OC5C)CC34CC4)n[nH]2)c(F)cn1` (single isomer, unassigned) [Example 518-B], for which, on His6-TEV-PPARγ-(234-505), the AC50 is 996 nM. Besides, in the assay with UM-UC-9 engineered cells, the IC50 is above 10000 nM.

As to `COc1cc(-c2cc(C(=O)N3CCC(C(=O)NCc4cnc5c(cnn5C)c4)CC3)n[nH]2)c(Cl)cn1` [Example 232, 1-(5-(5-chloro-2-methoxypyridin-4-yl)-1H-pyrazole-3-carbonyl)-N-((1-methyl-1H-pyrazolo[3,4-b]pyridin-5-yl)methyl)piperidine-4-carboxamide], the AC50 at His6-TEV-PPARγ-(234-505) is 516 nM. For the same molecule, the IC50 in the assay with UM-UC-9 engineered cells (Homo sapiens, UM-UC-9, 144 h) stood at 2150 nM.

On to `COc1cc(-c2cc(C(=O)N3CCC(C(=O)NCc4cc5cc[nH]c5cn4)CC3)n[nH]2)c(Cl)cn1` [Example 212, N-((1H-pyrrolo[2,3-c]pyridin-5-yl)methyl)-1-(5-(5-chloro-2-methoxypyridin-4-yl)-1H-pyrazole-3-carbonyl)piperidine-4-carboxamide], for which the AC50 at His6-TEV-PPARγ-(234-505) is 79.2 nM. Moreover, the IC50 with UM-UC-9 engineered cells (Homo sapiens, UM-UC-9, 144 h) amounted to 782 nM.

On to `COc1cc(-c2[nH]nc(C(=O)N3CCC(C(=O)NC4CCC(C)CC4)CC3)c2Cl)ccn1` (mixture of isomers) [Example 110, 1-[4-chloro-5-(2-methoxypyridin-4-yl)-1H-pyrazole-3-carbonyl]-N-[(1s,4s)-4-methylcyclohexyl]piperidine-4-carboxamide and 1-[4-chloro-5-(2-methoxypyridin-4-yl)-1H-pyrazole-3-carbonyl]-N-[(1r,4r)-4-methylcyclohexyl]piperidine-4-carboxamide], for which the AC50 at His6-TEV-PPARγ-(234-505) was 575 nM. For the same molecule, in the assay with UM-UC-9 engineered cells, the IC50 was 1210 nM.

Take `COc1cc(-c2cc(C(=O)N3CC[C@H](C(=O)NC4CCN(c5cnnc(C)c5)C4)CC34CC4)n[nH]2)c(F)cn1` (single isomer, unassigned) [Example 452-A]: the AC50 at His6-TEV-PPARγ-(234-505) worked out at 8.7 nM. The IC50 with UM-UC-9 engineered cells turned out to be 2010 nM.

Regarding `COc1cc(-c2cc(C(=O)N3CC[C@H](C(=O)NCc4ncccc4C)CC34CC4)n[nH]2)c(F)cn1` [Example 359, (S)-4-(5-(5-fluoro-2-methoxypyridin-4-yl)-1H-pyrazole-3-carbonyl)-N-((3-methylpyridin-2-yl)methyl)-4-azaspiro[2.5]octane-7-carboxamide], at His6-TEV-PPARγ-(234-505), the AC50 stood at 8 nM. Besides, the IC50 in the assay with UM-UC-9 engineered cells (Homo sapiens, UM-UC-9, 144 h) worked out at 19.9 nM.

With `COc1cc(-c2cc(C(=O)N3CC[C@H](C(=O)NCc4ncc(F)cc4OC)CC34CC4)n[nH]2)c(F)cn1` [Example 389, (S)-4-(5-(5-fluoro-2-methoxypyridin-4-yl)-1H-pyrazole-3-carbonyl)-N-((5-fluoro-3-methoxypyridin-2-yl)methyl)-4-azaspiro[2.5]octane-7-carboxamide], the AC50 on His6-TEV-PPARγ-(234-505) was 10.3 nM. In addition, the IC50 in the assay with UM-UC-9 engineered cells (Homo sapiens, UM-UC-9, 144 h) came out at 13 nM.
